For the test, the system named is P388 leukemia ip, CD2F1 mice, survival T/C. Description: NCI In Vivo Anticancer Drug Screen. Data for tumor model P388 Leukemia (intraperitoneal) in CD2F1 (CDF1) mice. The following applies: endpoint: median survival time, higher = longer survival. In a few lines: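 Mice carrying the transplanted tumor received test compound or vehicle. Survival was recorded in each group, and the value is the treated-group measurement divided by that of the vehicle-treated control group.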

The mark [1] stands for this setting: dose: 12.5 mg/kg/injection, schedule: Q01DX009 (ip), vehicle: saline.
The mark [2] stands for this setting: dose: 25.0 mg/kg/injection, schedule: Q01DX009 (ip), vehicle: saline.
[3] abbreviates: dose: 50.0 mg/kg/injection, schedule: Q01DX009 (ip), vehicle: saline.
The mark [4] stands for this setting: dose: 6.25 mg/kg/injection, schedule: Q01DX009 (ip), vehicle: saline with Tween-80.
Setting [5] is: dose: 12.5 mg/kg/injection, schedule: Q01DX009 (ip), vehicle: saline with Tween-80.
Where [6] appears, read: dose: 25.0 mg/kg/injection, schedule: Q01DX009 (ip), vehicle: saline with Tween-80.
The mark [7] stands for this setting: dose: 50.0 mg/kg/injection, schedule: Q01DX009 (ip), vehicle: saline with Tween-80.

Where “and” joins values, the source holds several entries; their conditions need not be identical. Identical values can stand only once. Toxic doses and inconclusive results are not listed.

For the compound `COC(=O)[C@@]12OC[C@]34[C@H]([C@@H](O)[C@@H]1O)[C@@]1(C)CC(=O)C(O)=C(C)[C@@H]1C[C@H]3OC(=O)[C@H](OC(=O)/C=C(\C)C(C)C)[C@@H]24`, the T/C is, setting by setting: (dose: 0.03 mg/kg/injection, schedule: Q01DX009 (ip), vehicle: saline + alcohol) 108 % of control; (dose: 0.06 mg/kg/injection, schedule: Q01DX009 (sc), vehicle: saline + alcohol) 107 % of control; (dose: 0.06 mg/kg/injection, schedule: Q03HX024 (ip), vehicle: saline + alcohol) 152 % of control; (dose: 0.13 mg/kg/injection, schedule: Q01DX009 (ip), vehicle: saline with Tween-80) 160 % of control; (dose: 0.13 mg/kg/injection, schedule: Q01DX009 (sc), vehicle: saline + alcohol) 108 % of control; (dose: 0.13 mg/kg/injection, schedule: Q03HX024 (ip), vehicle: saline + alcohol) 151 % of control. In addition, the T/C runs as follows: (dose: 0.25 mg/kg/injection, schedule: Q01DX009 (ip), vehicle: distilled water + Tween-80) 155 % of control and 177 % of control; (dose: 0.25 mg/kg/injection, schedule: Q01DX009 (ip), vehicle: saline with Tween-80) 156 % of control; (dose: 0.25 mg/kg/injection, schedule: Q01DX009 (sc), vehicle: saline + alcohol) 106 % of control; (dose: 0.25 mg/kg/injection, schedule: Q03HX024 (ip), vehicle: saline + alcohol) 164 % of control; (dose: 0.38 mg/kg/injection, schedule: Q01DX009 (ip), vehicle: saline + Tween-80 + alcohol) 155 % of control; (dose: 0.5 mg/kg/injection, schedule: Q01DX009 (ip), vehicle: distilled water + Tween-80) 155 % of control and 185 % of control. The T/C is, setting by setting: (dose: 0.5 mg/kg/injection, schedule: Q01DX009 (ip), vehicle: saline with Tween-80) 169 % of control; (dose: 0.5 mg/kg/injection, schedule: Q01DX009 (oral), vehicle: saline + alcohol) 102 % of control; (dose: 0.5 mg/kg/injection, schedule: Q01DX009 (sc), vehicle: saline + alcohol) 110 % of control; (dose: 0.5 mg/kg/injection, schedule: Q08DX002 (ip), vehicle: saline + alcohol) 101 % of control; (dose: 1.0 mg/kg/injection, schedule: Q01DX001 (ip), vehicle: saline + alcohol) 111 % of control; (dose: 1.0 mg/kg/injection, schedule: Q01DX001 (sc), vehicle: saline + alcohol) 109 % of control. The T/C by setting is: (dose: 1.0 mg/kg/injection, schedule: Q01DX005 (ip), vehicle: water) 155 % of control; (dose: 1.0 mg/kg/injection, schedule: Q01DX009 (ip), vehicle: distilled water + Tween-80) 158 % of control and 166 % of control; (dose: 1.0 mg/kg/injection, schedule: Q01DX009 (ip), vehicle: saline with Tween-80) 185 % of control; (dose: 1.0 mg/kg/injection, schedule: Q01DX009 (oral), vehicle: saline + alcohol) 104 % of control; (dose: 1.0 mg/kg/injection, schedule: Q08DX002 (ip), vehicle: saline + alcohol) 100 % of control; (dose: 2.0 mg/kg/injection, schedule: Q01DX001 (ip), vehicle: saline + alcohol) 116 % of control. Also, the T/C is 115 % of control (dose: 2.0 mg/kg/injection, schedule: Q01DX001 (sc), vehicle: saline + alcohol); 209 % of control (dose: 2.0 mg/kg/injection, schedule: Q01DX009 (ip), vehicle: saline with Tween-80); 104 % of control (dose: 2.0 mg/kg/injection, schedule: Q01DX009 (oral), vehicle: saline + alcohol); 102 % of control (dose: 2.0 mg/kg/injection, schedule: Q08DX002 (ip), vehicle: saline + alcohol); 120 % of control (dose: 4.0 mg/kg/injection, schedule: Q01DX001 (ip), vehicle: saline + alcohol); 106 % of control (dose: 4.0 mg/kg/injection, schedule: Q01DX001 (oral), vehicle: saline + alcohol). The T/C (dose: 125.0 micrograms/kg/injection, schedule: Q01DX009 (ip), vehicle: saline + alcohol) was 124 % of control; the T/C (dose: 250.0 micrograms/kg/injection, schedule: Q01DX009 (ip), vehicle: saline + alcohol) is 155 % of control; the T/C (dose: 500.0 micrograms/kg/injection, schedule: Q01DX009 (ip), vehicle: saline + alcohol) is 171 % of control; the T/C (dose: 1000.0 micrograms/kg/injection, schedule: Q01DX009 (ip), vehicle: saline + alcohol) was 160 % of control and 197 % of control; the T/C (dose: 2000.0 micrograms/kg/injection, schedule: Q01DX009 (ip), vehicle: saline + alcohol) was 152 % of control.
For the compound `O=C(c1ccccc1)c1cccc[n+]1Cc1ccccc1`, the T/C is, setting by setting: under setting [1], 103 % of control; under setting [2], 96 % of control; under setting [3], 98 % of control and 100 % of control.
In the case of `O=c1[nH]c(=O)n(C2OC(CCl)C(O)C2O)cc1F` (stereo not given), the T/C was 99 % of control (dose: 30.0 mg/kg/injection, schedule: Q04DX002 (ip), vehicle: saline); 104 % of control (dose: 43.0 mg/kg/injection, schedule: Q04DX002 (ip), vehicle: water); 102 % of control (dose: 60.0 mg/kg/injection, schedule: Q04DX002 (ip), vehicle: saline); 106 % of control (dose: 86.0 mg/kg/injection, schedule: Q04DX002 (ip), vehicle: water); 116 % of control (dose: 120.0 mg/kg/injection, schedule: Q04DX002 (ip), vehicle: saline); 113 % of control (dose: 172.0 mg/kg/injection, schedule: Q04DX002 (ip), vehicle: water). For the same compound, the T/C (dose: 240.0 mg/kg/injection, schedule: Q04DX002 (ip), vehicle: saline) was 109 % of control and the T/C (dose: 344.0 mg/kg/injection, schedule: Q04DX002 (ip), vehicle: water) is 113 % of control.
With `Cc1c(C)[n+](=O)c2ccc(/C=N/N3CCOC3=O)cc2n1[O-]`, the T/C by setting is: (dose: 6.25 mg/kg/injection, schedule: Q01DX009 (ip), vehicle: Klucel (hydroxypropylcellulose) (HPC)) 106 % of control; (dose: 12.5 mg/kg/injection, schedule: Q01DX009 (ip), vehicle: Klucel (hydroxypropylcellulose) (HPC)) 97 % of control; (dose: 25.0 mg/kg/injection, schedule: Q01DX009 (ip), vehicle: Klucel (hydroxypropylcellulose) (HPC)) 102 % of control; (dose: 100.0 mg/kg/injection, schedule: Q01DX009 (ip), vehicle: Klucel (hydroxypropylcellulose) (HPC)) 90 % of control.
As for `CCn1cc(C(=O)O)c(=O)c2ccc(-c3cn[nH]c3C)nc21`, the T/C by setting is: (dose: 50.0 mg/kg/injection, schedule: Q04DX003 (ip), vehicle: suspension in saline) 106 % of control; (dose: 100.0 mg/kg/injection, schedule: Q04DX003 (ip), vehicle: suspension in saline) 107 % of control; (dose: 200.0 mg/kg/injection, schedule: Q04DX003 (ip), vehicle: suspension in saline) 106 % of control.
With `CCN(CC)CCOc1ccc(/C(=C(\Cl)c2ccccc2)c2ccccc2)cc1`, the T/C runs as follows: (dose: 3.13 mg/kg/injection, schedule: Q01DX009 (ip), vehicle: saline with Tween-80) 96 % of control; under setting [4], 119 % of control; under setting [5], 117 % of control; under setting [6], 122 % of control; (dose: 50.0 mg/kg/injection, schedule: Q01DX005 (ip), vehicle: saline with Tween-80) 93 % of control; under setting [7], 104 % of control. Moreover, the T/C (dose: 100.0 mg/kg/injection, schedule: Q01DX005 (ip), vehicle: saline with Tween-80) was 96 % of control and the T/C (dose: 200.0 mg/kg/injection, schedule: Q01DX005 (ip), vehicle: saline with Tween-80) is 93 % of control.
With `Cc1cc(=O)c2ccccc2s1`, the T/C by setting is: under setting [7], 104 % of control; (dose: 100.0 mg/kg/injection, schedule: Q01DX009 (ip), vehicle: saline with Tween-80) 113 % of control.
Take `COC(=O)c1cc2c(s1)CCC/C(Cl)=C(/C=O)C2`: the T/C is, setting by setting: under setting [4], 96 % of control; (dose: 6.25 mg/kg/injection, schedule: Q01DX009 (ip), vehicle: saline) 97 % of control; under setting [5], 104 % of control and 94 % of control; under setting [1], 91 % of control; under setting [6], 106 % of control and 95 % of control; under setting [2], 97 % of control. In addition, the T/C was 100 % of control and 107 % of control under setting [7]; 101 % of control and 120 % of control under setting [3]; 103 % of control (dose: 100.0 mg/kg/injection, schedule: Q01DX009 (ip), vehicle: saline).
On to `Cc1ccc(Cc2ccc[nH]2)cc1`, for which the T/C runs as follows: (dose: 100.0 mg/kg/injection, schedule: Q04DX002 (ip), vehicle: distilled water + Tween-80 + alcohol) 100 % of control; (dose: 200.0 mg/kg/injection, schedule: Q04DX002 (ip), vehicle: distilled water + Tween-80 + alcohol) 100 % of control; (dose: 400.0 mg/kg/injection, schedule: Q04DX002 (ip), vehicle: distilled water + Tween-80 + alcohol) 103 % of control.

These data come from PubChem BioAssay AID330 (DTP/NCI, 2004).
